# Read-outs that look alike come from different tables or passages of the source.
# Legend:
# [1] = tested on: E. coli NCTC 13441 (UPEC); assay: MIC broth microdilution; format: cell-based, Escherichia coli; details: for MIC: Escherichia coli, NCTC13441
# Outline: (§1)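 Read-out is visible growth: the MIC is the lowest compound concentration that prevents it after incubating 20-24 hours at 37° C in air. Compounds span 0.39-200 μM final (two-fold steps, up to 2% DMSO) in cation-adjusted Müller-Hinton broth, following CLSI guidelines for planktonic bacteria.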
# [2] = tested on: Acinetobacter baumannii ATCC 17978 (AB); assay: MIC broth microdilution; format: cell-based; details: for MIC: ATCC17978
# Outline: as §1
# [3] = tested on: Escherichia coli K12 (EC); assay: MIC broth microdilution; format: cell-based
# Outline: as §1
# [4] = tested on: Klebsiella pneumoniae ATCC 10031 (KP2); assay: MIC broth microdilution; format: cell-based; details: for MIC: ATCC10031
# Outline: (§2)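 Growth inhibition read after 20-24 hour incubation at 37° C in ambient atmosphere; MIC is the lowest compound concentration with no growth. Planktonic bacteria in cation-adjusted Müller-Hinton broth were exposed to two-fold dilutions (0.39-200 μM final; ≤2% DMSO final) per CLSI guidelines.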
# [5] = tested on: Pseudomonas aeruginosa ATCC 33359 (PA); assay: MIC broth microdilution; format: cell-based; details: for MIC: ATCC33359
# Outline: as §1
# [6] = tested on: Staphylococcus aureus ATCC 35556 (SA); assay: MIC broth microdilution; format: cell-based; details: for MIC: ATCC35556
# Outline: as §1
# [7] = tested on: K. pneumoniae ATCC 700603 (KP3); assay: MIC broth microdilution; format: cell-based, Klebsiella pneumoniae; details: for MIC: Klebsiella pneumoniae, ATCC700603
# Outline: as §2
# [8] = tested on: K. pneumoniae H151440671 (KP10); assay: MIC broth microdilution; format: cell-based, Klebsiella pneumoniae; details: for MIC: Klebsiella pneumoniae
# Outline: as §2
# [9] = tested on: K. pneumoniae H154020667 (KP6); assay: MIC broth microdilution; format: cell-based, Klebsiella pneumoniae; details: for MIC: Klebsiella pneumoniae
# Outline: as §2
# [10] = tested on: K. pneumoniae H154300688 (KP9); assay: MIC broth microdilution; format: cell-based, Klebsiella pneumoniae; details: for MIC: Klebsiella pneumoniae
# Outline: as §2
# [11] = tested on: K. pneumoniae H154600588 (KP8); assay: MIC broth microdilution; format: cell-based, Klebsiella pneumoniae; details: for MIC: Klebsiella pneumoniae
# Outline: as §2
# [12] = tested on: K. pneumoniae H154640784 (KP7); assay: MIC broth microdilution; format: cell-based, Klebsiella pneumoniae; details: for MIC: Klebsiella pneumoniae
# Outline: as §2
# [13] = tested on: K. pneumoniae H154680676 (KP5); assay: MIC broth microdilution; format: cell-based, Klebsiella pneumoniae; details: for MIC: Klebsiella pneumoniae
# Outline: as §2
# [14] = tested on: K. pneumoniae NCTC 13438 (KP1); assay: MIC broth microdilution; format: cell-based, Klebsiella pneumoniae; details: for MIC: Klebsiella pneumoniae, NCTC13438
# Outline: as §2
# [15] = tested on: human hepatocarcinoma cell line ATCC HB-8065 (HepG2); assay: Human cell viability (CellTiter-Glo); format: cell-based; details: HepG2 cells, 24 h incubation, CellTiter-Glo luminescence, 0.2-100 μM, read-out: IC50 values against the HepG2 cell line
# Outline: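 Cytotoxicity was read as CellTiter-Glo luminescence after 24 h compound exposure at 37° C., 5% CO2. Final concentrations spanned 0.2-100 μM in two-fold steps, in 1% FBS MEM with 1% DMSO, on cells plated a day earlier at 20,000/well. IC50 came from 4-parameter logistic regression.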
# [16] = tested on: Klebsiella pneumoniae ATCC 51504 (KP4); assay: MIC broth microdilution; format: cell-based; details: ATCC51504
# Outline: as §1
# [17] = tested on: Salmonella typhimurium XNAA5 (St); assay: MIC broth microdilution; format: cell-based
# Outline: as §1
# [18] = tested on: Serratia marcescens SL1344 (Sm); assay: MIC broth microdilution; format: cell-based
# Outline: as §1
SMILES,MIC [1] [µM],MIC [2] [µM],MIC [3] [µM],MIC [4] [µM],MIC [5] [µM],MIC [6] [µM],MIC [7] [µM],MIC [8] [µM],MIC [9] [µM],MIC [10] [µM],MIC [11] [µM],MIC [12] [µM],MIC [13] [µM],MIC [14] [µM],IC50 ([15]; Homo sapiens) [µM],MIC [16] [µM],other results
"COc1ncc(-c2nc(N)[nH]c2-c2ccnc(C)c2)cc1F [Example 29, 4-(5-Fluoro-6-methoxypyridin-3-yl)-5-(2-methylpyridin-4-yl)-1H-imidazol-2-amine]",≤ 1,> 100,≤ 1,≤ 1,> 100,> 100,10 to 100,1 to 10,1 to 10,1 to 10,10 to 100,10 to 100,1 to 10,10 to 100,> 100,,
"COc1ccc(-c2nc(N)[nH]c2-c2ccnc(C)c2)cc1Cl [Example 12, 4-(3-Chloro-4-methoxyphenyl)-5-(2-methylpyridin-4-yl)-1H-imidazol-2-amine]",1 to 10,> 100,1 to 10,≤ 1,> 100,> 100,10 to 100,1 to 10,1 to 10,1 to 10,10 to 100,10 to 100,1 to 10,10 to 100,> 100,,
"Cc1cc(-c2[nH]c(N)nc2-c2ccc3c(c2)OCCO3)ccn1 [Example 32, 4-(2,3-Dihydrobenzo[b][1,4]dioxin-6-yl)-5-(2-methylpyridin-4-yl)-1H-imidazol-2-amine]",,,,,,,,,,,,,,,,1 to 10,MIC UPEC [1]: A (an MIC (μM) of less or equal to 1 is assigned the letter A); MIC AB [2]: D (a MIC of over 100 is assigned the letter D); MIC EC [3]: A (an MIC (μM) of less or equal to 1 is assigned the letter A); MIC KP2 [4]: A (an MIC (μM) of less or equal to 1 is assigned the letter A); MIC PA [5]: D (a MIC of over 100 is assigned the letter D); MIC SA [6]: D (a MIC of over 100 is assigned the letter D); MIC KP3 [7]: B (a MIC of from 1 to 10 is assigned the letter B); MIC KP10 [8]: B (a MIC of from 1 to 10 is assigned the letter B); MIC KP6 [9]: B (a MIC of from 1 to 10 is assigned the letter B); MIC KP9 [10]: B (a MIC of from 1 to 10 is assigned the letter B); MIC KP8 [11]: B (a MIC of from 1 to 10 is assigned the letter B); MIC KP7 [12]: B (a MIC of from 1 to 10 is assigned the letter B); MIC KP5 [13]: B (a MIC of from 1 to 10 is assigned the letter B); MIC KP1 [14]: B (a MIC of from 1 to 10 is assigned the letter B); IC50 [15]: > 100 µM
O=C(O)c1cn(C2CC2)c2cc(N3CCNCC3)c(F)cc2c1=O [CIP],,,,,,,,,,,,,,,,,MIC UPEC [1]: D (a MIC of over 100 is assigned the letter D); MIC AB [2]: A (an MIC (μM) of less or equal to 1 is assigned the letter A); MIC EC [3]: A (an MIC (μM) of less or equal to 1 is assigned the letter A); MIC PA [5]: B (a MIC of from 1 to 10 is assigned the letter B); MIC St [17]: A (an MIC (μM) of less or equal to 1 is assigned the letter A); MIC Sm [18]: A (an MIC (μM) of less or equal to 1 is assigned the letter A); MIC SA [6]: B (a MIC of from 1 to 10 is assigned the letter B)
"CCN1CCOc2ccc(-c3nc(N)[nH]c3-c3ccnc(C)c3)cc21 [Example 57, 4-(4-Ethyl-3,4-dihydro-2H-benzo[b][1,4]oxazin-6-yl)-5-(2-methylpyridin-4-yl)-1H-imidazol-2-amine]",1 to 10,> 100,≤ 1,≤ 1,> 100,> 100,1 to 10,≤ 1,≤ 1,1 to 10,1 to 10,1 to 10,≤ 1,1 to 10,> 100,≤ 1,
"Cc1cc(-c2[nH]c(N)nc2-c2ccc3c(c2)OCO3)ccn1 [Example 26, 4-(Benzo[d][1,3]dioxol-5-yl)-5-(2-methylpyridin-4-yl)-1H-imidazol-2-amine]",1 to 10,> 100,≤ 1,≤ 1,> 100,> 100,10 to 100,1 to 10,1 to 10,1 to 10,10 to 100,10 to 100,1 to 10,10 to 100,> 100,,
"Nc1cc(-c2[nH]c(N)nc2-c2ccc3c(c2)OCCO3)ccn1 [Example 24, 4-(2-Amino-4-(2,3-dihydrobenzo[b][1,4]dioxin-6-yl)-1H-imidazol-5-yl)pyridin-2-amine]",1 to 10,> 100,1 to 10,≤ 1,> 100,> 100,10 to 100,1 to 10,1 to 10,10 to 100,10 to 100,10 to 100,1 to 10,10 to 100,> 100,,
"Cc1cc(-c2[nH]c(N)nc2-c2ccc3c(c2)NCC(=O)O3)ccn1 [Example 53, 6-(2-Amino-5-(2-methylpyridin-4-yl)-1H-imidazol-4-yl)-3,4-dihydro-2H-benzo[b][1,4]oxazin-2-one]",1 to 10,> 100,1 to 10,≤ 1,> 100,> 100,,,,,,,,10 to 100,> 100,,

# Second part, led by results:
MIC [1] [µM],MIC [2] [µM],MIC [3] [µM],MIC [4] [µM],MIC [5] [µM],MIC [6] [µM],MIC [7] [µM],MIC [8] [µM],MIC [9] [µM],MIC [10] [µM],MIC [11] [µM],MIC [12] [µM],MIC [13] [µM],MIC [14] [µM],IC50 ([15]; Homo sapiens) [µM],MIC [16] [µM],SMILES,other results
≤ 1,> 100,≤ 1,≤ 1,> 100,> 100,1 to 10,≤ 1,≤ 1,1 to 10,1 to 10,1 to 10,≤ 1,1 to 10,25 to 100,≤ 1,"Cc1cc(-c2[nH]c(N)nc2-c2ccc3c(c2)N(C(C)C)CCO3)ccn1 [Example 93, 4-(4-isopropyl-3,4-dihydro-2H-benzo[b][1,4]oxazin-6-yl)-5-(2-methylpyridin-4-yl)-1H-imidazol-2-amine]",
≤ 1,> 100,1 to 10,≤ 1,> 100,> 100,1 to 10,1 to 10,1 to 10,1 to 10,1 to 10,1 to 10,1 to 10,1 to 10,> 100,1 to 10,"COCCN1CCOc2ccc(-c3nc(N)[nH]c3-c3ccnc(C)c3)cc21 [Example 64, 4-(4-(2-Methoxyethyl)-3,4-dihydro-2H-benzo[b][1,4]oxazin-6-yl)-5-(2-methylpyridin-4-yl)-1H-imidazol-2-amine]",
1 to 10,> 100,≤ 1,≤ 1,> 100,> 100,1 to 10,≤ 1,≤ 1,≤ 1,1 to 10,1 to 10,≤ 1,1 to 10,> 100,≤ 1,"Cc1cc(-c2[nH]c(N)nc2-c2ccc3c(c2)N(C2CC2)CCO3)ccn1 [Example 65, 4-(4-Cyclopropyl-3,4-dihydro-2H-benzo[b][1,4]oxazin-6-yl)-5-(2-methylpyridin-4-yl)-1H-imidazol-2-amine]",
1 to 10,> 100,1 to 10,≤ 1,> 100,> 100,10 to 100,1 to 10,1 to 10,10 to 100,10 to 100,10 to 100,1 to 10,10 to 100,> 100,,"Cc1cc(-c2[nH]c(C)nc2-c2ccc3c(c2)OCCO3)ccn1 [Example 84, 4-(4-(2,3-Dihydrobenzo[b][1,4]dioxin-6-yl)-2-methyl-1H-imidazol-5-yl)-2-methylpyridine]",
